The results in this text go back to patent publication US12685735B2 (Foghorn Therapeutics Inc., priority 2020, dated 2026).

In one assay the target is BRM (Homo sapiens, UniProt P51531). The assay is described as follows: ATPase catalytic activity assay of BRM (ADP-Glo). As to conditions: for IC50: read-out: BRM IC50 (μM)*. The class given is biochemical. Put shortly:
(§1)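 ADP formed by the ATPase reaction was quantified by ADP-Glo luminescence. After the reaction, unconsumed ATP was depleted (40 min, room temperature), then ADP was converted to ATP for luciferase detection (60 min, room temperature) before reading on a luminometer.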

In another assay the target is BRG-1 (Homo sapiens, UniProt P51532). Nature of the assay: ATPase catalytic activity assay of BRG-1 (ADP-Glo). It counts as biochemical. As to conditions: ATPase catalytic activity, ADP-Glo; for IC50: read-out: BRG1 IC50 (μM)*; for Emax: read-out: BRG1 Max % Inhibition. Put shortly:
as §1

Each structure is given as a SMILES string. A value given as a limit tells only on which side of the number the result lay.

Chain of BRM (P51531 whole entry): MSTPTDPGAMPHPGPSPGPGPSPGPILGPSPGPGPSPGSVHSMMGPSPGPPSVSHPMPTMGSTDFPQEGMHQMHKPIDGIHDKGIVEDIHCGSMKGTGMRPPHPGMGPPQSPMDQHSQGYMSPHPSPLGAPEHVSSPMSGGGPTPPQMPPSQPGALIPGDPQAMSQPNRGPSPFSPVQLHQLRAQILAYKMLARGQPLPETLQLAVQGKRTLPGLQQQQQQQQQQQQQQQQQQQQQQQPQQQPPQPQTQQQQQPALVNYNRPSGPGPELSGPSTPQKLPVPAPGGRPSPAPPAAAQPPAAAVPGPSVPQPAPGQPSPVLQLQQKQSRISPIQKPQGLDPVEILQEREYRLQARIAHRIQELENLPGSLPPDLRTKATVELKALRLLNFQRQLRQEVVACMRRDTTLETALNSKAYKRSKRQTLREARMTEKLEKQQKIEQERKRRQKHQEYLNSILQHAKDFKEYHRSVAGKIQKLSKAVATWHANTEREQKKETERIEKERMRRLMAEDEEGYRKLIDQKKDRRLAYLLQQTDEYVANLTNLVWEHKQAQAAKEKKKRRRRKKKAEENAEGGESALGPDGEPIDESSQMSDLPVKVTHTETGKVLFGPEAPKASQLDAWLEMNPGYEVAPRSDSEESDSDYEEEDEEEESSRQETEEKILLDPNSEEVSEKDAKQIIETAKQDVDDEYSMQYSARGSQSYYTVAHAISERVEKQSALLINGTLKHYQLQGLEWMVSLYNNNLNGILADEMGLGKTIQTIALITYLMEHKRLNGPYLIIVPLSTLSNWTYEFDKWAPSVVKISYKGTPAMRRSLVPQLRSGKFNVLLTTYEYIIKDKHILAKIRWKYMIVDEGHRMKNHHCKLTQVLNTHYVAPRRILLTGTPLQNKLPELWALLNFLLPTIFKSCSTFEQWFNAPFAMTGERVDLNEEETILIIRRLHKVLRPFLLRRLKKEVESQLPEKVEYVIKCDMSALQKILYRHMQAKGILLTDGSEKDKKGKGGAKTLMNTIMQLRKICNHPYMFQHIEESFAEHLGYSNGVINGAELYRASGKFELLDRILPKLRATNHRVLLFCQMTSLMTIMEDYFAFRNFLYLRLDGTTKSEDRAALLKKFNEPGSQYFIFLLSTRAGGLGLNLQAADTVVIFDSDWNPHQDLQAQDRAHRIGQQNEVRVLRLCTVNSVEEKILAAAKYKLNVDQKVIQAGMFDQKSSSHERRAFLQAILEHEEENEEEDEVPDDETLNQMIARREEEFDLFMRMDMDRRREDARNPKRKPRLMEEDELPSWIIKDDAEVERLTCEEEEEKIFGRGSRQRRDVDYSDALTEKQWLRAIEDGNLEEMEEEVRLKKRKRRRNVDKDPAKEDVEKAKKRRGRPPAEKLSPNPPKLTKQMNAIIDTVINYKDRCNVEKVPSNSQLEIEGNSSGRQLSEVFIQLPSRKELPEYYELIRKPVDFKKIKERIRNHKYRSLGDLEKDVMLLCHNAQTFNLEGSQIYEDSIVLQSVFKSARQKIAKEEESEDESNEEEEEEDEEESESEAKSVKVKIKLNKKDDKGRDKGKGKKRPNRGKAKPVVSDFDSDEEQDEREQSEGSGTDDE
Chain of BRG-1 (P51532 whole entry): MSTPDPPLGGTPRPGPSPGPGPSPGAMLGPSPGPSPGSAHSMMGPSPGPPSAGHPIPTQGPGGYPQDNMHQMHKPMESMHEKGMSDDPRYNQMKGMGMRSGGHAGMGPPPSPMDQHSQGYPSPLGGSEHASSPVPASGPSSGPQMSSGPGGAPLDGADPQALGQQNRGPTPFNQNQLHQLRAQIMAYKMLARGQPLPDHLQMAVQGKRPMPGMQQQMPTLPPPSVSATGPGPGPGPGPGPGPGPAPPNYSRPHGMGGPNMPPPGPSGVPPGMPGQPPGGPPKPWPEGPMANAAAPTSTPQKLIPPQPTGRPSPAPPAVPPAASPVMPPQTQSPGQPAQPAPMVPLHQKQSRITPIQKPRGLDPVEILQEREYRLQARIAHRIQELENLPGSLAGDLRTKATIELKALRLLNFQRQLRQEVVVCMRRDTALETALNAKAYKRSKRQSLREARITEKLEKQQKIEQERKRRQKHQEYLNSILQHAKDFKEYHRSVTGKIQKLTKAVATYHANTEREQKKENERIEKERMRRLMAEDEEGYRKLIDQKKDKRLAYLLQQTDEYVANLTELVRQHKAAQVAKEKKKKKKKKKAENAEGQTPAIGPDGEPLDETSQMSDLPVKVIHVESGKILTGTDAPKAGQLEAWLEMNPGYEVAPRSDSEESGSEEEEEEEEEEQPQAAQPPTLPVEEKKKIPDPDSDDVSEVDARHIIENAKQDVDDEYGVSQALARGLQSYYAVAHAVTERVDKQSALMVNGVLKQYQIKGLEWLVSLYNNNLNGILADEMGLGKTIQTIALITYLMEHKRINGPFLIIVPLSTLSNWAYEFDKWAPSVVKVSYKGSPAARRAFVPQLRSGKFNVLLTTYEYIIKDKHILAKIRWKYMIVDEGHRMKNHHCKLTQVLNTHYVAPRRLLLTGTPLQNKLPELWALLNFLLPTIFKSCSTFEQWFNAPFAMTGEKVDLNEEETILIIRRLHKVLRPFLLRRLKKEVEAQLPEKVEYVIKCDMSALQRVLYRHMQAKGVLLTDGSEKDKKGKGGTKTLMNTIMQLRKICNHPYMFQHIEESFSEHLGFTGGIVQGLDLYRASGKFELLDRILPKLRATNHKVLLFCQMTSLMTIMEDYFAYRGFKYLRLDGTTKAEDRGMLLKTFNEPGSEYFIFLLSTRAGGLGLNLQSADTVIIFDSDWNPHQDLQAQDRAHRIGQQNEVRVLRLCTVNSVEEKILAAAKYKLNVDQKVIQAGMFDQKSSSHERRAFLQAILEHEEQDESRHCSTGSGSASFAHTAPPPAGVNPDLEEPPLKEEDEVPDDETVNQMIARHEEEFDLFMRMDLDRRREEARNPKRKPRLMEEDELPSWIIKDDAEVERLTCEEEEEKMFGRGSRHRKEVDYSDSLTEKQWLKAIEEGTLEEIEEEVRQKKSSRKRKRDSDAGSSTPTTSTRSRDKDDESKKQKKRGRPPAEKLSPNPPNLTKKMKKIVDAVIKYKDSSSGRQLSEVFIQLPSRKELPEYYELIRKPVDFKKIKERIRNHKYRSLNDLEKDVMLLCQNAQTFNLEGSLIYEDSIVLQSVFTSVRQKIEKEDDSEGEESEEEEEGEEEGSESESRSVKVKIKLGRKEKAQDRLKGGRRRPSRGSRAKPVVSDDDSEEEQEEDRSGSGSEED

Consider `Cc1cncc(-c2cccc(-c3csc(NC(=O)CNC(=O)c4ccc5c(c4)[C@](C)(CO)CC5)n3)n2)n1` [Compound 163, (R)-3-(hydroxymethyl)-3-methyl-N-(2-((4-(6-(6-methylpyrazin-2-yl)pyridin-2-yl)thiazol-2-yl)amino)-2-oxoethyl)-2,3-dihydro-1H-indene-5-carboxamide], for which, on BRM, the “BRM Max % Inhibition” value is listed as over 90% and the IC50 is under 0.1 µM. Besides, on BRG-1, the 50% inhibitory concentration (IC50) lay within 1 to 5 µM and the Emax was over 40%.
In the case of `Cc1cncc(-c2cccc(-c3csc(NC(=O)CNC(=O)c4ccc5c(c4)[C@@](C)(CO)CC5)n3)n2)n1` [Compound 164, (S)-3-(hydroxymethyl)-3-methyl-N-(2-((4-(6-(6-methylpyrazin-2-yl)pyridin-2-yl)thiazol-2-yl)amino)-2-oxoethyl)-2,3-dihydro-1H-indene-5-carboxamide], on BRM, the “BRM Max % Inhibition” value was over 60% and the IC50 is 0.1 to 1 µM. In addition, on BRG-1, the 50% inhibitory concentration (IC50) was over 5 µM and the Emax was under 30%.
Regarding `C[C@@H]1CN(c2cccc(-c3csc(NC(=O)CNC(=O)c4ccc5c(c4)[C@](C)(CO)CCO5)n3)c2)C[C@H](C)O1` [Compound 165, (R)-N-(2-((4-(3-((cis)-2,6-dimethylmorpholino)phenyl)thiazol-2-yl)amino)-2-oxoethyl)-4-(hydroxymethyl)-4-methylchroman-6-carboxamide], on BRM, the “BRM Max % Inhibition” value is reported as over 90% and the IC50 lay in the range of 0.1 to 1 µM. At BRG-1, the IC50 is over 5 µM and the Emax was under 40%.
`C[C@@H]1CN(c2cccc(-c3csc(NC(=O)CNC(=O)c4ccc5c(c4)[C@@](C)(CO)CCO5)n3)c2)C[C@H](C)O1` [Compound 166, (S)-N-(2-((4-(3-((cis)-2,6-dimethylmorpholino)phenyl)thiazol-2-yl)amino)-2-oxoethyl)-4-(hydroxymethyl)-4-methylchroman-6-carboxamide]: on BRM, the “BRM Max % Inhibition” value is over 95% and the IC50 fell in the range of 0.1 to 1 µM. On BRG-1, the concentration for half-maximal inhibition (IC50) was over 5 µM and the Emax was over 50%.
As to `C[C@@]1(CO)CCc2ccc(C(=O)NCC(=O)Nc3nc(-c4cccc(-c5cnccn5)n4)cs3)cc21` [Compound 167, (R)-3-(hydroxymethyl)-3-methyl-N-(2-oxo-2-((4-(6-(pyrazin-2-yl)pyridin-2-yl)thiazol-2-yl)amino)ethyl)-2,3-dihydro-1H-indene-5-carboxamide], on BRM, the “BRM Max % Inhibition” value was over 95% and the IC50 was 0.1 to 1 µM. At BRG-1, the IC50 is over 5 µM and the Emax was over 50%.
On to `C[C@@H]1CN(c2cccc(-c3csc(NC(=O)CNC(=O)c4cccc(C5(CO)COC5)c4)n3)c2)C[C@H](C)O1` [Compound 168, N-(2-((4-(3-((cis)-2,6-dimethylmorpholino)phenyl)thiazol-2-yl)amino)-2-oxoethyl)-3-(3-(hydroxymethyl)oxetan-3-yl)benzamide], for which, at BRM, the “BRM Max % Inhibition” value is over 90% and the IC50 lay in the range of 0.1 to 1 µM. Also, on BRG-1, the IC50 was over 5 µM and the Emax is over 50%.
Turning to `C[C@]1(CO)CCc2ccc(C(=O)NCC(=O)Nc3nc(-c4cccc(-c5cnccn5)n4)cs3)cc21` [Compound 169, (S)-3-(hydroxymethyl)-3-methyl-N-(2-oxo-2-((4-(6-(pyrazin-2-yl)pyridin-2-yl)thiazol-2-yl)amino)ethyl)-2,3-dihydro-1H-indene-5-carboxamide], on BRM, the “BRM Max % Inhibition” value is listed as over 80% and the half-inhibitory concentration (IC50) lay in the range of 0.1 to 1 µM. On BRG-1, the IC50 was over 5 µM and the Emax is over 50%.
Take `C[C@@H]1CN(c2cccc(-c3csc(NC(=O)CNC(=O)c4cnc5c(c4)[C@](C)(C#N)CC5)n3)c2)C[C@H](C)O1` [Compound 170, (R)-5-cyano-N-(2-((4-(3-((cis)-2,6-dimethylmorpholino)phenyl)thiazol-2-yl)amino)-2-oxoethyl)-5-methyl-6,7-dihydro-5H-cyclopenta[b]pyridine-3-carboxamide]: at BRM, the “BRM Max % Inhibition” value is listed as over 95% and the half-inhibitory concentration (IC50) was under 0.1 µM. At BRG-1, the IC50 is under 0.1 µM and the Emax is over 95%.

What is called IC50 is the concentration at which inhibition is half-maximal.
